Consider one compound from patent US11324709B2, “Fatty acid amides and uses thereof in the treatment of addiction disorder and addiction related conditions” (Yissum Research Development Company of The Hebrew …, priority 2017, dated 2022).

Like-named read-outs stand apart in the source and are kept apart here.

The test system of series [1] is Sprague-Dawley rats. Briefly: Establishment of naloxone precipitated MWD-induced conditioned place aversion (Experiment 2). It counts as in vivo, rat. The protocol: Rats (n=22) received two 3-day conditioning cycles in order to attain a naloxone precipitated MWD-induced place avoidance. On Day 1, the floor opposite to the assigned drug floor was paired with a s.c. saline injection. Ten minutes after a saline injection, the rats were placed into the conditioning box with the assigned saline-paired floor for 20 minutes while their locomotion was tracked with Ethovision. On Day 2, the rats received a high dose of morphine (20 mg/kg) s.c., 24 h after the saline conditioning trial the previous day. After the injection, they were placed in an empty shoebox cage and monitored for signs of respiratory distress and stimulated when necessary until they recovered and were returned to the home cage. On Day 3, 24 h post morphine injections, the rats were injected with either VEH (n=12) or OlGly (n=12) 10 min prior to receiving an s.c. injection of naloxone. Ten min later they were placed into the conditioning box with the assigned naloxone-paired floor for 20 minutes while their locomotion was tracked using Ethovision. Four days later, all rats underwent a second 3-day conditioning cycle. Five days following the last naloxone trial, a 10 min drug-free test trial was performed. The test trial consisted of the same procedures as the pre-test trial, but rats were given a s.c. saline injection 10 min prior to the test. […]

The test system of a further series is mice. Particulars: cited from earlier work.
Series [2] relates to Sprague-Dawley rats.
Another series has as its system nicotine-dependent mice. To be noted: cited from earlier work.
Series [3] has as its system Sprague-Dawley rats. Briefly: Potential of OlGly to produce a CPP or CPA (place conditioning, Experiment 1). The format is in vivo, rat. Particulars: 5 mg/kg ip. The protocol: Rats (n=12) received two conditioning trials with oleoyl glycine. On each trial they received intraperitoneal (ip) injections of 5 mg/kg oleoyl glycine or VEH (24 hr apart; counterbalanced order) 20 minutes prior to placement in the conditioning box lined with the grid or hole floor (counterbalanced) for 20 minutes.

Series [4] relates to ICR mice. The series is described as follows: Morphine CPP in mice. It counts as in vivo, mouse. To be noted: OlGly 30 mg/kg i.p., morphine 10 mg/kg s.c. for 3 days. The protocol: Male C57BL/6 mice (Charles River, Italy) weighing 18-20 g were used for the mild TBI Weight Drop (WD) model. Mice were housed three per cage under controlled illumination (12 h light/dark cycle; light on 6:00 A.M.) and standard environmental conditions (ambient temperature 20-22° C., humidity 55-60%) for at least 1 week before the beginning of experiments. Animal chow and tap water were available ad libitum. Male ICR mice (6-8 weeks old; Harlan, Indianapolis, Ind.) with a body mass of 27-32 g served as subjects in all in vivo pharmacology experiments. Mice were group-housed (four per cage) on a 12/12 light/dark cycle (lights on at 0600 h) and given food and water ad libitum. All animal protocols were approved by the Virginia Commonwealth University Institutional Animal Care and Use Committee, were in accordance with the National Institutes of Health Guide for the Care and Use of Laboratory Animals (Institute of Laboratory Animal Resources, 2011), and by the Animal Ethics Committee of The Second University of Naples, in compliance with Italian (D.L. 116/92) and European Commission (O.J. of E.C. L358/1 18/12/86) regulations on the protection of laboratory animals. All efforts were made to reduce both animal numbers and suffering during the experiments. […]

In series [5] the test system is ICR mice. The series is described as follows: Cannabinoid tetrad behavioral assessment. The format is in vivo, mouse. To be noted: i.p. The protocol: Male C57BL/6 mice (Charles River, Italy) weighing 18-20 g were used for the mild TBI Weight Drop (WD) model. Mice were housed three per cage under controlled illumination (12 h light/dark cycle; light on 6:00 A.M.) and standard environmental conditions (ambient temperature 20-22° C., humidity 55-60%) for at least 1 week before the beginning of experiments. Animal chow and tap water were available ad libitum. Male ICR mice (6-8 weeks old; Harlan, Indianapolis, Ind.) with a body mass of 27-32 g served as subjects in all in vivo pharmacology experiments. Mice were group-housed (four per cage) on a 12/12 light/dark cycle (lights on at 0600 h) and given food and water ad libitum. All animal protocols were approved by the Virginia Commonwealth University Institutional Animal Care and Use Committee, were in accordance with the National Institutes of Health Guide for the Care and Use of Laboratory Animals (Institute of Laboratory Animal Resources, 2011), and by the Animal Ethics Committee of The Second University of Naples, in compliance with Italian (D.L. 116/92) and European Commission (O.J. of E.C. L358/1 18/12/86) regulations on the protection of laboratory animals. All efforts were made to reduce both animal numbers and suffering during the experiments.
[^2H]8AEA, [^2H]52-AG, [^2H]4 PEA, [^2H]4 OEA, [^2H]8 N-arachidonoyldopamine (NADA), [^2H]8AraSer and [^2H]8AraGly were purchased from Cayman Chemicals (MI, USA). OlGly was synthetized in the Mechoulam laboratory and CP55,940 ((−)-cis-3-[2-hydroxy-4-(1,1-dimethylheptyl)phenyl]-trans-4-(3-hydroxypropyl)cyclohexanol) and morphine sulfate were generously provided by NIDA (Rockville, Md.). OlGly and CP55,940 were dissolved in a vehicle solution consisting of ethanol (5% of total volume), alkamuls-620 (Sanofi-Aventis, Bridgewater, N.J.) (5% of total volume), and saline (0.9% NaCl) (90% of total volume). Oleoyl glycine and CP55,940 were given via the intraperitoneal (i.p.) route of administration. (−)-Nicotine hydrogen tartrate [(−)-1-methyl-2-(3-pyridyl)pyrrolidine (+)-bitartrate] and mecamylamine HCl were purchased from Sigma-Aldrich Inc. (St. Louis, Mo., USA). Morphine sulfate [morphine hemi[sulfate pentahydrate]] Nicotine and mecamylamine (2 mg/kg) were dissolved in physiological saline and given via the subcutaneous (s.c.) route of administration in a volume of 10 ml/kg. For the nicotine CPP study, 0.5 mg/kg nicotine dose was used because this dose reliably produces significant CPP in ICR mouse (18). Morphine CPP was performed with 10 mg/kg (s.c.) as recently described (19). For nicotine withdrawal studies, 24 mg/kg/day nicotine or saline was continuously perfused for 14 days using s.c. osmotic minipumps (model 2000; Alzet Corporation, Cupertino, Calif.) that were implanted under isoflurane anesthesia. This prolonged nicotine administration regimen reliably produces significant withdrawal syndrome in the three behavioral paradigms used here.
Mice were acclimated to the test environment for at least 1 h prior to testing for tetrad components: spontaneous activity, catalepsy, antinociception, and hypothermia (7-9). In the locomotor studies, subjects were administered vehicle or drug and 5 min later were placed into clear acrylic boxes (approx. 44.5 cm×22.25 cm×20.0 cm) contained within sound-attenuating cabinets equipped with an LED light source and fans for general air circulation and creation of white noise. The distance traveled (cm) and time spent immobile (s) for each mouse were collected and recorded for 10 min using Fire-i™ digital cameras purchased from Unibrain (San Ramon, Calif., USA) and ANY-maze™ video tracking software purchased from Stoelting Company (Wood Dale, Ill., USA). Mice were assessed for baseline tail withdrawal latencies and body temperature, given an intraperitoneal (i.p.) injection of vehicle or drug (OlGly), and 30 min later assessed in the following order: catalepsy, tail withdrawal test, and body temperature. […]

As usually defined, the melting point is the temperature, or range, at which the solid turns liquid. In the case of `CCCCCCCC/C=C\CCCCCCCC(=O)NCC(=O)O` [OlGly, oleoyl glycine], the melting point was 93 to 94 °C (dec.). For the same compound, the “establishment of the naloxone precipitated MWD-induced CPA” value with Sprague-Dawley rats [1] (5 mg/kg OlGly 10 min prior to naloxone, drug by floor interaction p=0.017) is given as “significantly interfered”. In addition, the “activity during the conditioning trials” value in the series with Sprague-Dawley rats [1] (pretreatment with 5 mg/kg OlGly, naloxone conditioning trials) was “did not modify activity”. Besides, in the series with mice, the nicotine-induced place preference entry is listed as “interfered” and the “place preference or place aversion produced by OlGly itself” value was “neither a place preference nor a place aversion”. The “establishment of a morphine-induced place preference” value in the series on Sprague-Dawley rats [2] (5 mg/kg OlGly i.p. 10 min prior to morphine 10 mg/kg s.c.) is “did not modify”. In addition, the “establishment of a morphine-induced place preference” value in the series on Sprague-Dawley rats [2] (30 mg/kg OlGly i.p. 10 min prior to morphine 10 mg/kg s.c.) is reported as “did not modify”. Besides, in the series with nicotine-dependent mice, the precipitated withdrawal responses result was “reduced” and the “withdrawal induced place aversion” value was “reduced”. Besides, the “motoric effects during conditioning (activity measure) compared to VEH” value in the series with Sprague-Dawley rats [3] is given as “no motoric effects”. Moreover, the “time spent on the oleoyl glycine paired floor (mean)” value in the series with Sprague-Dawley rats [3] (10 min drug-free test trial, VEH paired floor 232.16 sec) was 299.00 s. Further, the “preference or aversion for the drug paired floor” value in the series on Sprague-Dawley rats [3] (two conditioning trials, drug-free test trial) is reported as “did not produce a significant preference or aversion”. Besides, the “expression of morphine CPP” value in the series with ICR mice [4] is “did not attenuate”. Besides, the “cataleptic responses (bar test)” value in the series on ICR mice [5] is “did not elicit cataleptic responses”. The “antinociception (tail immersion)” value in the series with ICR mice [5] (FIG. 5A) is “did not produce”. The hypothermia result with ICR mice [5] (FIG. 5B) is reported as “did not produce”. Moreover, the “motor behavior: distance traveled” value with ICR mice [5] (FIG. 5C) is “did not produce”. For the same compound, in the series with ICR mice [5] (FIG. 5D), the “motor behavior: speed” value is given as “did not produce”. Besides, in the series with ICR mice [5] (FIG. 5E), the “motor behavior: immobility time” value was “did not produce”.
